From US20240383853A1, “OXIMES AND THEIR USE IN TREATMENT OF GBA-RELATED DISEASES” (ZEVRA DENMARK A/S, priority 2021, published 2024)

Target: T1, glucosylceramidase (GCase, GBA) in human fibroblast cell line GM10915 harboring the L444P GBA mutation (Homo sapiens, UniProt P04062, L483P)
T1 construct: Human fibroblast cell line GM10915 harboring the L444P GBA mutation; host or cells: GM10915 human fibroblasts
T1 sequence (P04062 40-536 L483P): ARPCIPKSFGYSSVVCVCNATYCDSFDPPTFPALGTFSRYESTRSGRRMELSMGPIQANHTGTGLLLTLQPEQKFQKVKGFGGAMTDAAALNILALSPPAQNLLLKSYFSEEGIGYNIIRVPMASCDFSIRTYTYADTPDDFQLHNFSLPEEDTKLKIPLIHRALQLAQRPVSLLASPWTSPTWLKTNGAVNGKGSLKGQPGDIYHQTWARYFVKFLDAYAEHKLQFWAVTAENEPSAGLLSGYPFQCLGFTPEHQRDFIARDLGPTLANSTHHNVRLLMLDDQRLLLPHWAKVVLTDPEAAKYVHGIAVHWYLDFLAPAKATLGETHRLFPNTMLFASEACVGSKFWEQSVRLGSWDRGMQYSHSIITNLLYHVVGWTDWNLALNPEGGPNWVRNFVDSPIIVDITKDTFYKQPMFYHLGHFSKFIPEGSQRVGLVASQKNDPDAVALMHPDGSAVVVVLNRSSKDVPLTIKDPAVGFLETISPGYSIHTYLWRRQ
Test: GCase activity assay (4-MUG substrate, normalised to crystal violet staining) in GM10915 fibroblasts
Type: cell-based
Conditions: five days exposure; for GBA EC1.5: concentration where Percent GCase activity = 150% (1.5-fold induction), 8-point dose range; for Emax: maximum Percent GCase activity relative to untreated cells in the dose range tested
Method: Human fibroblast cell line GM10915 harboring the L444P GBA mutation was obtained from Coriell Biorepositories. All chemicals (Glacial acetic acid, Glycine, 4-Methylumbelliferyl b-D-glucopyranoside (4-MUG), Sodium acetate trihydrate, Sodium hydroxide, Crystal violet, SDS, Ammonium hydroxide) were obtained from Sigma-Aldrich (Denmark). Compounds tested for GCase activity were dissolved in H2O or DMSO.
The GM10915 cell line was cultured under standard cell culture conditions (37° C. and 5% CO2) in complete DMEM medium supplemented with nonessential amino acids (NEAA), 1% Pen-Strep and 12% FCS. Cells were seeded at a density of 10^4 cells/well in 100 μL complete medium in one black 96-well plate for glucosylceramidase (GCase) activity measurement and in one clear 96-well plate for crystal violet staining to correct for cell density. Crystal violet staining is performed to obtain quantitative information about the relative density of cells adhering to multi-wells plates.
The assay was adapted from Sawkar et al (2002) and briefly described in the following. The day after seeding of cells, the medium was replaced with fresh medium containing the compounds to be tested. Compounds were tested in duplicate and in an 8-point diluted dose range to obtain a dose response. Cells were exposed with compounds for five days. Fresh compound was added every 2-3 days. PBS was included to define the basal level of GCase activity.
Cells were washed three times with 200 μL PBS per well and 50 μL of 2.5 mM 4-MUG buffer (4-MUG dissolved in 0.2 M acetate buffer pH 4.0) was added and the cells were incubated at 37° C., 5% CO2 for 23 hours. The reaction was stopped by adding 150 μL 0.2 M glycine buffer (pH 10.8). Fluorescence was measured with a Varioskan® Flash reader (Thermo Scientific) at an excitation/emission setting of 365/445 nm.
Cells were treated with compounds in a parallel setup identical to the setup to test for GCase activity. At the end of compound treatment, cells were washed once with 200 μL PBS per well and 50 μL 0.1% w/v crystal violet (in H2O) was added. Following 10 min. of incubation, the crystal violet solution was removed, and the cells were washed three times with 200 μL PBS and 100 μL 1% SDS was added to solubilize the stain. The plate was agitated on an orbital shaker for 10-30 min. Absorbance (A) is measured at […] using a Varioskan® Flash reader (Thermo Scientific).
The fluorescence signal (F) derived from the GCase measurement is normalized to the absorbance signal (A) derived from the crystal violet staining. The percent GCase activity resulting from compound treatment is calculated relative to the basal activity obtained from untreated cells.
Maximal effect of compounds (Emax) is determined from the dose response effects as the maximum “Percent GCase activity” achieved in the dose range tested.

CN1CCN(CC(O)CO/N=C(\Cl)C2(C)CCNCC2)CC1 (stereo not shown) [ID 402, N-(2-hydroxy-3-(4-methylpiperazin-1-yl)propoxy)-4-methylpiperidine-4-carbimidoyl chloride tri-2,2,2-trifluoroacetate]
GBA EC1.5: 50 µM | Emax: 408%

OC(CO/N=C(\Cl)C1(c2cccnc2)CCNCC1)CN1CCCCC1 (stereo not shown) [ID 492, N-(2-hydroxy-3-(piperidin-1-yl)propoxy)-4-(pyridin-3-yl)piperidine-4-carbimidoyl chloride tri-2,2,2-trifluoroacetate]
GBA EC1.5: 42 µM | Emax: 383%

OC(CON=C(Cl)CCN1CCCC1)CN1CCCCC1 (stereo not shown) [ID 562, N-(2-hydroxy-3-(piperidin-1-yl)propoxy)-3-(pyrrolidin-1-yl)propanimidoyl chloride]
GBA EC1.5: 3 µM | Emax: 239%

CCC1(/C(Cl)=N/OCC(O)CN2CCCCC2)CCNCC1 (stereo not shown) [ID 409, 4-ethyl-N-(2-hydroxy-3-(piperidin-1-yl)propoxy)piperidine-4-carbimidoyl chloride di-2,2,2-trifluoroacetate]
GBA EC1.5: 25 µM | Emax: 255%

OC(CON=C(Cl)c1ccc(Cl)nc1)CN1CCCCC1 (stereo not shown) [ID 466, 6-chloro-N-(2-hydroxy-3-(piperidin-1-yl)propoxy)nicotinimidoyl chloride]
GBA EC1.5: 18 µM | Emax: 221%

CC(O)(CON=C(Cl)c1ccc(Cl)nc1)CN1CCCCC1 (stereo not shown) [ID 502, 6-chloro-N-(2-hydroxy-2-methyl-3-(piperidin-1-yl)propoxy)nicotinimidoyl chloride]
GBA EC1.5: 23 µM | Emax: 131%

CC1(C(Cl)=NOCC(O)CN2CC3CC3C2)CCNCC1 (single isomer, unassigned) [ID 403, N-(3-(3-azabicyclo[3.1.0]hexan-3-yl)-2-hydroxypropoxy)-4-methylpiperidine-4-carbimidoyl chloride di-2,2,2-trifluoroacetate]
GBA EC1.5: 48 µM | Emax: 264%

OC(CON=C(Br)c1ccnnc1)CN1CCCCC1 (stereo not shown) [ID 452, N-(2-hydroxy-3-(piperidin-1-yl)propoxy)pyridazine-4-carbimidoyl bromide]
GBA EC1.5: 18 µM | Emax: 572%
